We go through one molecule from ChEMBL document CHEMBL2417463, “Synthesis and identification of new flavonoids targeting liver X receptor β involved pathway as potential facilitators of Aβ clearance with reduced lipid accumulation” (J Med Chem, 2013).

Active and inactive are the calls of the source. The calls are words filed in the database; no cut-off is given here.

The subject of series [1] is BV-2. Nature of the series: Cytotoxicity against mouse BV2 cells assessed as inhibition of cell viability at 50 uM after 48 hrs by SRB assay relative to vehicle-treated control. In kind it is cell-based. The conditions noted are these: bv-2, 48 h.
The target in series [2] is T1, Oxysterols receptor LXR-beta (Mus musculus) (UniProt Q60644).
T1 sequence (whole entry): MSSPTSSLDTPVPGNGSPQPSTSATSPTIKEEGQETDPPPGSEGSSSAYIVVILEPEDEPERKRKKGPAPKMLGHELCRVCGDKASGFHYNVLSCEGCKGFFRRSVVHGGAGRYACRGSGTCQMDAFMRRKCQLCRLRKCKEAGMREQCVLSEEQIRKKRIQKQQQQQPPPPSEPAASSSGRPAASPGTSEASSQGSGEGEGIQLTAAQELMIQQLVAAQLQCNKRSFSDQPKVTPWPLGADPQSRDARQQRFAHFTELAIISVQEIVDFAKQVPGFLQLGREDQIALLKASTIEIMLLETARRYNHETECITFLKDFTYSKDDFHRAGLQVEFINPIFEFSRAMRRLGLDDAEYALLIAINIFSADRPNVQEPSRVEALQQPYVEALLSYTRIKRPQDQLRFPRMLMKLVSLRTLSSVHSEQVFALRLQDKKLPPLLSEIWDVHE
Description: Agonist activity at LXRbeta in mouse BV2 cells assessed as upregulation of apoE protein expression at 10 uM after 48 hrs by Western blot analysis relative to vehicle-treated control. Type of series: cell-based. The conditions noted are these: BV-2. Background: In western blotting, separated proteins are transferred to a membrane and probed.

Series [3] has as its target T1, Oxysterols receptor LXR-beta (Mus musculus). Nature of the series: Agonist activity at LXRbeta in mouse BV2 cells assessed as upregulation of apoE protein expression at 0.1 uM after 48 hrs by Western blot analysis relative to vehicle-treated control. In kind it is cell-based. The note with it: BV-2.
Series [4] has the same target. Description: Agonist activity at LXRbeta in mouse BV2 cells assessed as upregulation of apoE protein expression at 1 uM after 48 hrs by Western blot analysis relative to vehicle-treated control. Type of series: cell-based. The note with it: BV-2.
Series [5] has as its system Mus musculus. Nature of the series: Antialzheimer activity in double transgenic B6C3 mouse overexpressing APP swedish mutant and PSEN1dE9 assessed as reduction of insoluble amyloid beta42 level at 10 mg/kg, ip administered 3 times per week measured after 6 weeks by ELISA relative to vehicle-treated control. In kind it is functional. Also on record: scale not given: the % may be the effect or the level left. The note with it: route intraperitoneal. For orientation: ELISA stands for enzyme-linked immunosorbent assay.

Series [6] deals with Mus musculus. Nature of the series: Antialzheimer activity in double transgenic B6C3 mouse overexpressing APP swedish mutant and PSEN1dE9 assessed as reduction of soluble amyloid beta42 level at 10 mg/kg, ip administered 3 times per week measured after 6 weeks by ELISA relative to vehicle-treated control. In kind it is functional. The arrangement: scale not given: the % may be the effect or the level left. The conditions noted are these: route intraperitoneal.

Series [7] has as its system HepG2. Nature of the series: Induction of intracellular triglyceride accumulation in human HepG2 cells at 10 uM after 4 days relative to vehicle-treated control. Type of series: cell-based. The conditions noted are these: hepg2, 96 h.
For series [8], the target named is T1, Oxysterols receptor LXR-beta (Mus musculus). Description: Agonist activity at LXRbeta in mouse BV2 cells assessed as degradation of intracellular soluble amyloid beta42 at 1 uM preincubated for 18 hrs followed by soluble amyloid beta42 addition measured after 24 hrs by ELISA relative to vehicle-treated control. The conditions noted are these: BV-2. In kind it is cell-based.

For series [9], the system named is HepG2. Nature of the series: Induction of cytoplasmic lipid accumulation in human HepG2 cells at 10 uM after 4 days by oil red O staining-based light microscopic analysis. In kind it is cell-based. The conditions noted are these: hepg2, 96 h.
Series [10] relates to BV-2. Description: Upregulation of NEP mRNA expression in mouse BV2 cells at 0.01 to 1 uM after 18 hrs by real-time qPCR analysis. Type of series: functional, cell-based. A general note: In qPCR the cycle at which signal appears reflects the starting amount.
In series [11] the test system is Mus musculus. Nature of the series: Antialzheimer activity in double transgenic B6C3 mouse overexpressing APP swedish mutant and PSEN1dE9 assessed as reduction of amyloid beta42 plaque number in hippocampus at 10 mg/kg, ip administered 3 times per week measured after 6 weeks by OC staining-based fluorescence microscopic analysis relative to vehicle-treated control. The arrangement: scale not given: the % may be the effect or the level left. The conditions noted are these: route intraperitoneal. Type of series: functional.

Series [12] relates to Mus musculus. Description: Antialzheimer activity in double transgenic B6C3 mouse overexpressing APP swedish mutant and PSEN1dE9 assessed as upregulation of ABCA1 protein expression in brain at 10 mg/kg, ip administered 3 times per week measured after 6 weeks by Western blot analysis relative to vehicle-treated control. In kind it is functional. The conditions noted are these: route intraperitoneal.

For series [13], the target named is T1, Oxysterols receptor LXR-beta (Mus musculus). Description: Agonist activity at LXRbeta in mouse BV2 cells assessed as upregulation of ABCA1 protein expression after 12 to 48 hrs by Western blot analysis. The note with it: BV-2. In kind it is cell-based.
The target in series [14] is T2, Oxysterols receptor LXR-alpha (Homo sapiens) (UniProt Q13133).
T2 sequence (whole entry): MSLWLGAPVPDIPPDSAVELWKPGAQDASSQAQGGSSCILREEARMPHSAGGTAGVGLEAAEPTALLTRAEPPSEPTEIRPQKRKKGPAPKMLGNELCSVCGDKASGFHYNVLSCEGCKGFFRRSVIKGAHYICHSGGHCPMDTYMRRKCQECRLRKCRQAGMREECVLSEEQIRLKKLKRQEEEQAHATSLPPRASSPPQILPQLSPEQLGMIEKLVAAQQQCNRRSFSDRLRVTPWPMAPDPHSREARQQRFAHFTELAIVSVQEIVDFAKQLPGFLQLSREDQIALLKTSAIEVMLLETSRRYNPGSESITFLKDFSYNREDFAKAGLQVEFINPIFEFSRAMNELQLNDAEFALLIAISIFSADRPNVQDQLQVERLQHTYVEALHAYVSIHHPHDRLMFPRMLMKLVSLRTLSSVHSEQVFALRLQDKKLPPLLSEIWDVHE
Description: Agonist activity at human LXRalpha transfected in HEK293 cells at 0.1 uM after 24 hrs by luciferase reporter gene assay relative to vehicle-treated control. In kind it is cell-based.

The next series relates to HEK293. Description: Cytotoxicity against HEK293 cells assessed as inhibition of cell viability at 50 uM after 48 hrs by SRB assay relative to vehicle-treated control. In kind it is cell-based. The note with it: human, hek293, 48 h.
The test system of series [15] is Mus musculus. Description: Antialzheimer activity in double transgenic B6C3 mouse overexpressing APP swedish mutant and PSEN1dE9 assessed as reduction of amyloid beta42 plaque number in brain at 10 mg/kg, ip administered 3 times per week measured after 6 weeks by thioflavin S staining-based fluorescence microscopic analysis relative to vehicle-treated control. Type of series: functional, organism-based. Also on record: dose 10 mg/kg.

The test system of series [16] is Mus musculus. Description: Antialzheimer activity in double transgenic B6C3 mouse overexpressing APP swedish mutant and PSEN1dE9 assessed as reduction of amyloid beta42 plaque load in cortex at 10 mg/kg, ip administered 3 times per week measured after 6 weeks by OC staining-based fluorescence microscopic analysis relative to vehicle-treated control. Type of series: functional. Also on record: scale not given: the % may be the effect or the level left. The conditions noted are these: route intraperitoneal.

In series [17] the target is T1, Oxysterols receptor LXR-beta (Mus musculus). Description: Agonist activity at LXRbeta in mouse RAW264.7 cells assessed as upregulation of ABCA1 protein expression at 1 uM after 18 to 48 hrs by Western blot analysis. In kind it is cell-based.
Series [18] concerns BV-2. Description: Upregulation of IDE mRNA expression in mouse BV2 cells at 0.01 to 1 uM after 18 hrs by real-time qPCR analysis. In kind it is functional, cell-based.
The target of series [19] is T1, Oxysterols receptor LXR-beta (Mus musculus). Description: Agonist activity at LXRbeta in mouse RAW264.7 cells assessed as induction of ABCA1 promoter activation after 24 hrs by Dual-Glo luciferase reporter gene assay. In kind it is cell-based.
Series [20] deals with HepG2. Description: Cytotoxicity against human HepG2 cells assessed as inhibition of cell viability at 50 uM after 48 hrs by SRB assay relative to vehicle-treated control. In kind it is cell-based. The conditions noted are these: hepg2, 48 h, 50 µM.
In series [21] the test system is HepG2. Description: Induction of intracellular triglyceride accumulation in human HepG2 cells at 1 uM after 4 days relative to vehicle-treated control. Type of series: cell-based. The note with it: hepg2, 96 h.
Series [22] addresses T1, Oxysterols receptor LXR-beta (Mus musculus). Description: Agonist activity at LXRbeta in mouse RAW264.7 cells assessed as induction of ABCA1 promoter activation at 1 uM after 24 hrs by Dual-Glo luciferase reporter gene assay relative to vehicle-treated control. In kind it is cell-based.

Take `Cc1ccc(/C=C/C(=O)c2ccc(N)cc2O)o1`: the Activity result in the series on BV-2 [1] is “Non-toxic”; in the series with Mus musculus [5], 26%; in the series on Mus musculus [6] it was 31%; in the series with HepG2 [7] it was -0.3%; in series [8] it was 59%; in the series on HepG2 [9], “Toxic”. The Activity with Mus musculus [11] was 20%; in series [13], “Dose-dependent effect”; in the series with HEK293 it was “Non-toxic”; with Mus musculus [16], 30%; in series [19], “Dose-dependent effect”; in the series on HepG2 [20], “Non-toxic”. Further, the Activity in the series on HepG2 [21] was -0.3%. Further, the fold change (FC) in [2] is 2.7; in series [3] it was 1.6; in [4], 1.9; in the series on Mus musculus [12], 2.3; in [14] it was 0.99; in series [22] it was 2.09. Moreover, the outcome in the series with BV-2 [10] and in the series on BV-2 [18] was inactive. The outcome (in the series with Mus musculus [15]; in series [17]) was Active.
